Experiments:
[1] = test system: GS-109-V-20 human skin cell fibroblasts; experiment: Fibroblast assay: proliferation of GS-109-V-20 skin cell fibroblasts; type: cell-based; settings: for effect on GS-109-V-20 fibroblast proliferation in words: text
Protocol: The effect of methyl 3-O-3'-(N',N'-dimethylamino-n-propyl)-6-deoxy-D-glucopyranoside on the proliferative capacity of human GS-109-V-20 skin fibroblasts was measured with the use of ^3 H-thymidine incorporation assay. Cultured skin cells were detached from the surface of tissue culture flasks mechanically with a Teflon scraper. The cells were washed, resuspended in incubation medium and the viabilities determined. These cells were then plated in triplicate at a density of 1×10^3 cells/0.1 ml/microtiter well. To these cells was added 0.1 ml incubation medium containing the methyl 3-O-3'-(N',N'-dimethylamino-n-propyl)-6-deoxy-D-glucopyranoside compound.
(§1) After 3 days of culture, 1#uCi ^3 H-thymidine was added in 50 ul volume to each culture well of the microtiter plates. Eighteen hours later, each of the GS-109-V-20 cultures was examined morphologically for evidence of drug-induced toxicity such as cell rounding or granularity. The ^3 H-thymidine-pulsed cells were then precipitated and the amount of ^3 H-thymidine incorporation was counted on a liquid scintillation counter.
Methyl 3-O-3'-(N',N'-dimethylamino-n-propyl)-6-deoxy-D-glucopyranoside was suspended directly into the medium by extensive sonication, without being filter-sterilized. A range of doses of this compound was used to measure effects of this compound upon GS-109-V-20 cell proliferation. The following doses were used:
The human skin cell fibroblast line, GS-109-V-20, was obtained from the American Type Culture-Collection. […] These cells were selected for use because they are considered to exist in an initiated state, as opposed to being normal or transformed, and have a more extensive population doubling time and survival period in culture than do normal fibroblasts. In this regard, they would more closely reflect the biological characteristics of psoriatic or rheumatoid synovial fibroblasts which also proliferate more extensively than do normal fibroblasts, but not as extensively as immortalized transformed tumor cells.
The number of GS-109-V-20 cells was expanded for use in the described assays by culture in 25 cm^2 flasks at 37° C. in an atmosphere of 5% CO2 in air. At approximately 4-5 day intervals, or when confluence was reached, the cells were passaged. This was accomplished by detaching the cells by trypsinization, washing and reseeding the cells at a lower density into fresh tissue culture flasks.

GS-109-V-20 skin cells = experiment: Morphological examination of GS-109-V-20 cultures for drug-induced toxicity; type: cell-based, human
Protocol: as §1

COC1O[C@H](C)[C@@H](O)[C@H](OCCCN(C)C)[C@H]1O (stereo partly drawn) [V, Methyl 3-O-3'-(N',N'-dimethylamino-n-propyl)-6-deoxy-D-glucopyranoside]
^3 H-Thymidine uptake by GS-109-V-20 skin cells ([1]; 0.001 ug/ml): 2,557 ± 258 cpm
^3 H-Thymidine uptake by GS-109-V-20 skin cells ([1]; 0.01 ug/ml): 976 ± 469 cpm
^3 H-Thymidine uptake by GS-109-V-20 skin cells ([1]; 0.1 ug/ml): 1,052 ± 177 cpm
^3 H-Thymidine uptake by GS-109-V-20 skin cells ([1]; 1 ug/ml): 1,237 ± 301 cpm
^3 H-Thymidine uptake by GS-109-V-20 skin cells ([1]; 2.5 ug/ml): 1,044 ± 106 cpm
^3 H-Thymidine uptake by GS-109-V-20 skin cells ([1]; 10 ug/ml): 900 ± 189 cpm
^3 H-Thymidine uptake by GS-109-V-20 skin cells ([1]; 25 ug/ml): 946 ± 41 cpm
^3 H-Thymidine uptake by GS-109-V-20 skin cells ([1]; 100 ug/ml): 647 ± 541 cpm
inhibition at 0.001 µg/mL ([1]; Homo sapiens, Fibroblast, 0.001 ug/ml, read-out: % effect on GS-109-V-20 proliferation): 12%
inhibition at 0.01 µg/mL ([1]; Homo sapiens, Fibroblast, 0.01 ug/ml, read-out: % effect on GS-109-V-20 proliferation): 66%
inhibition at 0.1 µg/mL ([1]; Homo sapiens, Fibroblast, 0.1 ug/ml, read-out: % effect on GS-109-V-20 proliferation): 64%
inhibition at 1 µg/mL ([1]; Homo sapiens, Fibroblast, 1 ug/ml, read-out: % effect on GS-109-V-20 proliferation): 58%
inhibition at 2.5 µg/mL ([1]; Homo sapiens, Fibroblast, 2.5 ug/ml, read-out: % effect on GS-109-V-20 proliferation): 64%
inhibition at 10 µg/mL ([1]; Homo sapiens, Fibroblast, 10 ug/ml, read-out: % effect on GS-109-V-20 proliferation): 69%
inhibition at 25 µg/mL ([1]; Homo sapiens, Fibroblast, 25 ug/ml, read-out: % effect on GS-109-V-20 proliferation): 68%
inhibition at 100 µg/mL ([1]; Homo sapiens, Fibroblast, 100 ug/ml, read-out: % effect on GS-109-V-20 proliferation): 78%
effect on GS-109-V-20 fibroblast proliferation in words ([1]; listed as Methyl 3-O-3'-(N',N'-dimethylamino-n-propyl)-6-deoxy-D-glucopyranoside): inhibitory effects on the proliferation of GS-109-V-20 human skin cell fibroblasts
effect on GS-109-V-20 fibroblast proliferation in words ([1]; listed as methyl 3-O-3'-(N',N'-dimethylamino-n-propyl)-6-deoxy-D-glucopyranoside): A significant inhibitory effect was observed in a non-dose-dependent manner
cytotoxicity in GS-109-V-20 cultures, in words (GS-109-V-20 skin cells): without evidence of cytotoxicity

Source: US5298494A, “Monosaccharides having anti-proliferation and anti-inflammatory activity, compositions and uses thereof” (Greenwich Pharmaceuticals Incorporated, priority 1993, dated 1994)
